Format in all cases: in vivo
The test system of assay [1] is Tetranychus urticae. Nature of the assay: Tetranychus urticae - spray test, OP-resistant (Example A, French bean leaf disks). Conditions: for pest or weed control at 1.2 g/ha: 1.2 g ai/ha. The text has this: (§1) E is the efficacy expressed in % mortality of the untreated control using the mixture of A and B at m and n ppm respectively m and n g/ha, • then is
Tetranychus urticae—Spray Test OP-Resistant
Solvent: 78.0 parts by weight acetone • 1.5 parts by weight dimethylformamide
Emulsifier: alkylarylpolyglycol ether […]
French bean (Phaseolus vulgaris) leaf disks infected with all instars of the two spotted spidermite (Tetranychus urticae), are sprayed with a preparation of the active ingredient of the desired concentration.
After the specified period of time, mortality in % is determined. 100% means all spider mites have been killed and 0% means none of the spider mites have been killed. The mortality values determined thus are recalculated using the Colby-formula (see above).

For assay [2], the system named is Tetranychus urticae. Nature of the assay: Tetranychus urticae - spray test, OP-resistant (Example B, infested bean plants). The note with it: single active ingredient, mortality. The protocol:
as §1
Tetranychus urticae—Spray Test; OP-Resistant
(§2) Solvent: 7 parts by weight of dimethylformamide
Emulsifier: alkylaryl polyglycol ether
Further test concentrations are prepared by dilution with emulsifier containing water.
After the specified period of time mortality in % is determined. 100% means all the spider mites have been killed and 0% means none of the spider mites have been killed. The mortality values determined thus are recalculated using the Colby-formula (see above).

Assay [3] has as its system Meloidogyne incognita. Nature of the assay: Meloidogyne incognita - test (Example D, soil drench, salad seeds, gall formation). The note with it: single active ingredient, reduction of gall formation. The protocol:
The expected efficacy of a given combination of two compounds is calculated as follows (see Colby, S. R., “Calculating Synergistic and antagonistic Responses of Herbicide Combinations”, Weeds 15, pp. 20-22, 1967): • If • X is the efficacy expressed in % mortality of the untreated control for test compound A at a concentration of m ppm respectively m g/ha, • Y is the efficacy expressed in % mortality of the untreated control for test compound B at a concentration of n ppm respectively n g/ha,
as §1
[formula] • If the observed insecticidal efficacy of the combination is higher than the one calculated as “E”, then the combination of the two compounds is more than additive, i.e., there is a synergistic effect.
Meloidogyne incognita—Test
as §2
Emulsifier: 2.5 parts by weight of alkylarylpolyglycolether
To produce a suitable preparation of active compound, 1 part by weight of active compound is mixed with the stated amount of solvent and emulsifier and is diluted with water to the desired concentration. To produce a suitable preparation of a spore suspension the spores are diluted with emulsifier containing water to the desired concentration. In the calculation of the concentration the soil volume has to be included. […] Further test concentrations are prepared by dilution with water.
The compound solution is poured into pots filled with soil (loamy sand). A suspension containing eggs and larvae of the southern root-knot nematode (Meloidogyne incognita) is added, salad seeds are spread on the soil surface and covered with quartz sand. The salad seeds germinate and the seedlings grow. Galls develop on the roots.
After the specified period of time the nematicidal activity is determined on the basis of the percentage of gall formation. 100% means no galls were found; 0% means the number of galls found on the roots of the treated plants was equal to that in untreated control plants. The activity determined thus is recalculated using the Colby-formula (see above).

The subject of assay [4] is Meloidogyne incognita. Nature of the assay: Meloidogyne incognita - test (Example C, sand, salad seeds, gall formation). Conditions: single active ingredient, reduction of gall formation. The protocol: Meloidogvne incognita—Test
Solvent: 125.0 parts by weight of acetone
To produce a suitable preparation of active compound, 1 part by weight of active compound is mixed with the stated amount of solvent, and the concentrate is diluted with water to the desired concentration.
To produce a suitable preparation of a spore suspension the spores are diluted with water to the desired concentration.
Vessels are filled with sand, a solution of the active ingredient, a suspension containing eggs and larvae of the southern root-knot nematode (Meloidogyne incognita) and salad seeds. The salad seeds germinate and the seedlings grow. Galls develop in the roots.
After the specified period of time nematicidal activity is determined on the basis of the percentage of gall formation. 100% means no galls were found and 0% means the number of galls found on the roots of the treated plants was equal to that in untreated control plants.

[5] abbreviates: Tetranychus urticae, foliar, 144 h, single active ingredient, mortality, read-out: Efficacy in % after 6 days.
[6] abbreviates: 0.5 g ai/ha, single active ingredient, mortality.
The mark [7] stands for this setting: Tetranychus urticae, foliar, 144 h, read-out: Efficacy in % after 6 days.
Where [8] appears, read: Tetranychus urticae, foliar, 144 h, 0.5 g ai/ha, single active ingredient, mortality, read-out: Efficacy in % after 6 days.

Where two headings read alike, the source gives them in different places.

`CCCCCCCCCCCCC1=C(OC(C)=O)C(=O)c2ccccc2C1=O` [Acequinocyl, acequinocyl]: the “Efficacy in % after 2 days” value in the assay with Tetranychus urticae [1] (1 g ai/ha, single active ingredient, mortality) was found to be 0%. The pest or weed control at 1 g/ha with Tetranychus urticae [1] (Tetranychus urticae, foliar, 144 h, 1 g ai/ha, single active ingredient, mortality, read-out: Efficacy in % after 6 days) was 0%.
Regarding `COc1ccc(-c2ccccc2)cc1NNC(=O)OC(C)C` [Bifenazate], the pest or weed control at 0.25 g/ha with Tetranychus urticae [1] (Tetranychus urticae, foliar, 144 h, 0.25 g ai/ha, single active ingredient, mortality, read-out: Efficacy in % after 6 days) is 0%. Moreover, in the assay on Tetranychus urticae [1] (Tetranychus urticae, foliar, 144 h, 1.8 g ai/ha, single active ingredient, mortality, read-out: Efficacy in % after 6 days), the pest or weed control at 1.8 g/ha was 0%. The “Efficacy in % after 7 days” value with Tetranychus urticae [2] (2 ppm) came out at 65%.
In the case of `Cc1cc(F)c(N=C2SCC(=O)N2CC(F)(F)F)cc1[S+]([O-])CC(F)(F)F` (centres unmarked) [Cpd of formula (I)], the pest or weed control at 1.2 g/ha in the assay on Tetranychus urticae [1] (setting [5]) amounted to 70%. In addition, the “Efficacy in % after 7 days” value is reported as 0% in the assay on Tetranychus urticae [2] (0.2 ppm) and 10% in the assay on Tetranychus urticae [2] (0.4 ppm). Also, the “Efficacy in % after 4 days” value in the assay with Tetranychus urticae [2] (0.4 ppm) was found to be 0%; with Tetranychus urticae [2] (0.8 ppm), 25%. Moreover, the “Efficacy in % after 20 days” value stood at 0% in the assay on Meloidogyne incognita [3] (10 ppm) and 15% in the assay on Meloidogyne incognita [3] (20 ppm).
In the case of `O=C(Nc1ccn(-c2c(F)cccc2F)n1)c1ccccc1C(F)(F)F` [Cpd of formula (IIb), N-[1-(2,6-difluorophenyl)-1H-pyrazol-3-yl]-2-(trifluoromethyl)benzamide], in the assay on Meloidogyne incognita [4] (1.5 ppm), the “Efficacy in % after 14 days” value is on record as 0%. In addition, the “Efficacy in % after 20 days” value in the assay on Meloidogyne incognita [3] (0.4 ppm) is on record as 0%.
Turning to `CC(C)c1cc(Oc2ccccc2)cc(C(C)C)c1NC(=S)NC(C)(C)C` [Diafenthiuron, diafenthiuron], in the assay with Tetranychus urticae [1] (setting [6]), the “Efficacy in % after 2 days” value amounted to 0%. Further, in the assay with Tetranychus urticae [1] (setting [7]), the pest or weed control at 0.5 g/ha turned out to be 0% and the pest or weed control at 3 g/ha came out at 0%. For the same compound, the “Efficacy in % after 7 days” value in the assay on Tetranychus urticae [2] (3.2 ppm) was determined as 15%.
Turning to `CC(C)(C)c1ccc(CCOc2ncnc3ccccc23)cc1` [Fenazaquin, fenazaquin], in the assay on Tetranychus urticae [1] (setting [5]), the pest or weed control at 1.2 g/ha amounted to 0%. Also, the pest or weed control at 2.4 g/ha with Tetranychus urticae [1] (Tetranychus urticae, foliar, 144 h, 2.4 g ai/ha, single active ingredient, mortality, read-out: Efficacy in % after 6 days) worked out at 0%.
With `Cc1nn(C)c(Oc2ccccc2)c1C=NOCc1ccc(C(=O)OC(C)(C)C)cc1` [Fenpyroximate, fenpyroximate], in the assay on Tetranychus urticae [1] (setting [7]), the pest or weed control at 0.2 g/ha was found to be 0%.
For `COc1ccc(Cl)c(S(=O)(=O)NC(=O)c2cn3cc(C(F)(F)F)cc(Cl)c3n2)c1` [Fluazaindolizine], the “Efficacy in % after 14 days” value in the assay on Meloidogyne incognita [4] (0.025 ppm) was determined as 0%. Besides, the results for the “Efficacy in % after 20 days” value in the assay with Meloidogyne incognita [3] (0.2 ppm) and in the assay on Meloidogyne incognita [3] (0.4 ppm) were 0% and 40%, respectively.
For `O=S(=O)(CCC(F)=C(F)F)c1ncc(Cl)s1` [Fluensulfone], the “Efficacy in % after 14 days” value with Meloidogyne incognita [4] (0.1 ppm) and in the assay with Meloidogyne incognita [4] (0.2 ppm) was 0% in each case. In addition, in the assay on Meloidogyne incognita [3] (0.4 ppm), the “Efficacy in % after 20 days” value was 0%.
On to `O=C(NCCc1ncc(C(F)(F)F)cc1Cl)c1ccccc1C(F)(F)F` [Fluopyram], for which the “Efficacy in % after 20 days” value with Meloidogyne incognita [3] (0.04 ppm) and with Meloidogyne incognita [3] (0.08 ppm) was 0% throughout.
Take `CNC(=O)Oc1cc(C)c(SC)c(C)c1` [Methiocarb, 4-methylthio-3,5-xylyl methylcarbamate]: the pest or weed control at 6 g/ha with Tetranychus urticae [1] (Tetranychus urticae, foliar, 144 h, 6 g ai/ha, single active ingredient, mortality, read-out: Efficacy in % after 6 days) worked out at 0%. The pest or weed control at 12 g/ha in the assay on Tetranychus urticae [1] (Tetranychus urticae, foliar, 144 h, 12 g ai/ha, single active ingredient, mortality, read-out: Efficacy in % after 6 days) was 0%.
Consider `CC(C)(C)c1ccc(CSc2cnn(C(C)(C)C)c(=O)c2Cl)cc1` [Pyridaben, pyridaben], for which the pest or weed control at 0.5 g/ha in the assay on Tetranychus urticae [1] (setting [8]) came to 0%.
For the compound `CCc1nn(C)c(C(=O)NCc2ccc(C(C)(C)C)cc2)c1Cl` [Tebufenpyrad, tebufenpyrad], the “Efficacy in % after 2 days” value in the assay on Tetranychus urticae [1] (setting [6]) is on record as 0%. Also, the pest or weed control at 0.5 g/ha in the assay with Tetranychus urticae [1] (setting [8]) worked out at 0%.
In the case of `c1ccc(-c2noc(-c3cccs3)n2)cc1` [Tioxazafen], the “Efficacy in % after 20 days” value with Meloidogyne incognita [3] (1.25 ppm) is 0%.

(Values after patent US11819025B2, “Active compound combinations having insecticidal/acaricidal properties” (Bayer Aktiengesellschaft, priority 2017, dated 2023).)
